test system: HEK293; experiment: Inhibition of Wnt/beta-catenin signaling pathway in human HEK293 cells at 20 uM after 24 hrs by dual luciferase reporter gene assay relative to vehicle-treated control; settings: HEK293, 24 h

SMILES | inhibition at 20 µM
O=C(/C=C/c1ccc(O)c(O)c1)O[C@H](Cc1ccc(O)c(O)c1)C(=O)O [ROSMARINIC ACID] | 27%
COc1cc([C@@H](O)[C@@H](CO)Oc2ccc(CCCO)cc2O)ccc1O | -30.7%
C=CCc1ccc(O)c(-c2ccc(O)c(CC=C)c2)c1 [HONOKIOL] | 59.3%
O=C/C=C/c1ccc2c(c1)OC(c1ccc3c(c1)OC(CO)C(c1ccc(O)c(O)c1)O3)C(CO)O2 (stereo not drawn) | 69.9%
COc1cc([C@H]2OC[C@H]3[C@@H]2CO[C@@H]3c2ccc3c(c2)OCO3)ccc1O[C@@H]1O[C@H](CO)[C@@H](O)[C@H](O)[C@H]1O [SIMPLEXOSIDE] | -13.6%
COc1cc2c(c(OC)c1OC)-c1c(cc(OC)c(OC)c1OC)C[C@](C)(O)[C@@H](C)C2 [SCHIZANDRIN] | 6.2%
COc1cc2c(c(OC)c1OC)-c1c(cc3c(c1OC)OCO3)C[C@H](C)[C@](C)(O)C2 [GOMISIN A] | 38.2%
c1cc2c(cc1[C@H]1OC[C@H]3[C@@H]1CO[C@@H]3c1ccc3c(c1)OCO3)OCO2 [SESAMIN] | 39.7%
COc1ccc([C@@H]2OC[C@@H]3[C@H]2CO[C@H]3c2ccc(OC)c(OC)c2)cc1OC [EUDESMINE] | 26.3%
C=CCc1ccc(O)c(-c2cc(CC=C)ccc2O)c1 [MAGNOLOL] | 72.4%
c1cc2c(cc1O[C@H]1OC[C@H]3[C@@H]1CO[C@@H]3c1ccc3c(c1)OCO3)OCO2 [SESAMOLIN] | 11.6%
COc1cc(C[C@H]2COC(=O)[C@@H]2Cc2ccc(O[C@@H]3O[C@H](CO)[C@@H](O)[C@H](O)[C@H]3O)c(OC)c2)ccc1O [MATAIRESINOSIDE] | 9.3%
O[C@]12CO[C@H](c3ccc4c(c3)OCO4)[C@H]1CO[C@@H]2c1ccc2c(c1)OCO2 | -3.5%
C/C=C(\C)C(=O)O[C@H]1c2cc(OC)c(OC)c(OC)c2-c2c(cc3c(c2O)OCO3)C[C@H](C)[C@]1(C)O [SCHISANTHERIN C] | -9.3%
COC(=O)[C@@H](Cc1ccc(O)c(O)c1)OC(=O)/C=C/c1ccc(O)c2c1[C@@H](C(=O)O[C@H](Cc1ccc(O)c(O)c1)C(=O)OC)[C@H](c1ccc(O)c(O)c1)O2 | 10.5%
COc1cc([C@H]2OC[C@@H]3[C@@H]2CO[C@H]3c2cc(OC)c(O[C@@H]3O[C@H](CO)[C@@H](O)[C@H](O)[C@H]3O)c(OC)c2)cc(OC)c1O[C@@H]1O[C@H](CO)[C@@H](O)[C@H](O)[C@H]1O | 9.8%
Oc1ccc2c(c1)OCO2 | 10.1%
COc1cc2c(c(OC)c1OC)-c1c(cc3c(c1OC)OCO3)C[C@H](C)[C@H](C)C2 [WUWEIZISU B] | -17.8%
COc1cc([C@H]2c3c(cc(O)c(O)c3OC)C[C@@H](CO)[C@@H]2CO)ccc1O | 2.6%
O=C/C=C/c1ccc2c(c1)O[C@@H](CO)[C@H](c1ccc(O)c(O)c1)O2 [AMERICANIN A] | 55%
COc1cc([C@@H]2Oc3c(OC)cc(CCCO)cc3[C@H]2CO)ccc1O [DIHYDRODEHYDRODICONIFERYL ALCOHOL] | 31.4%
COc1cc([C@@H]2Oc3c(OC)cc(CCCO[C@@H]4O[C@H](CO)[C@@H](O)[C@H](O)[C@H]4O)cc3[C@H]2CO)ccc1O | -14.8%
CC(=O)/C=C/C=C/c1ccc2c(c1)O[C@@H](CO)[C@H](c1ccc(O)c(O)c1)O2 | 0.6%
COc1ccc([C@@H]2OC[C@H]3[C@@H]2CO[C@@H]3c2ccc3c(c2)OCO3)cc1OC [FARGESIN] | 29.8%
C/C=C/c1cc(OC)c2c(c1)C(C)C(c1ccc(O)c(OC)c1)O2 (stereo not drawn) [DEHRODIISOEUGENOL] | 28%
COc1cc(CC(CO)c2cc(/C=C/CO)cc(OC)c2O[C@@H]2O[C@H](CO)[C@@H](O)[C@H](O)[C@H]2O)ccc1O (stereo partly drawn) | 11.4%
COc1cc([C@@H]2OC[C@@H]3[C@H]2CO[C@@H]3c2ccc(OC)c(OC)c2)ccc1O | 24.7%
COc1cc(C2Oc3cc([C@H]4Oc5cc(O)cc(O)c5C(=O)[C@@H]4O)ccc3OC2CO)ccc1O (stereo partly drawn) [SILIBININ] | 8.3%

Reference: ChEMBL document CHEMBL2440042, “Anti-proliferative activity of hydnocarpin, a natural lignan, is associated with the suppression of Wnt/β-catenin signaling pathway in colon cancer cells” (Bioorg Med Chem Lett, 2013)
